This assay has as its system c-Myc. Put plainly: c-Myc immunofluorescence assay. The format is cell-based, human. The conditions noted are these: A549 cells, 24 hours treatment, anti-c-Myc immunofluorescence. The procedure: A549 human non-small cell lung carcinoma cells were treated for 24 hours with increasing compound concentration, cells were fixed and stained with a nuclei stain (DAPI) and anti-c-Myc fluorescent antibody. The c-Myc signal was quantified by image analysis, and data was exported and analyzed using TIBCO Spotfire® (TIBCO Corporation). Dose response curves were generated and fitted with logaristic regression to calculate potency (EC50 values). Potency values are presented in Table 2 for all compounds and are shown for selected compounds (FIG. 4).
A549 cells were grown in 384-wells plates (Perkin Elmer, Cat. 6057300) for 48 hours, treated with compounds and then fixed for 20 min in 4% paraformaldehyde. After that permeabilization was done using 0.1% Triton X-100 in PBS for 20 min. Primary anti-c-Myc antibody (Abcam, ab32072) staining was performed for 90 min at room temperature. Cells then were washed twice with PBS and incubated with secondary antibody (Abcam, ab150075) for 90 min at room temperature. Nuclei were stained with DAPI for 10 min and washed twice with PBS.
Cell images were taken with Operetta (Perkin Elmer, USA), a wide-field fluorescence microscope at 20× magnification. After acquisition, the images were transferred to Columbus software (Perkin-Elmer) for image analysis. In Columbus, cells were identified by their nucleus, using the “Find Nuceli” module and cytoplasm was detected based on the secondary antibody channel. Subsequently, the fluorescent signal was enumerated in the identified cell region. Then data was exported to a data analysis and visualization software, Tibco Spotfire, USA.

Turning to `NC(=O)c1ccc2c(c1)sc1nc(-c3ccc(C4CCCN4)cc3F)cn12` (stereo not drawn) [Compound 492, 2-(2-fluoro-4-(pyrrolidin-2-yl)phenyl)benzo[d]imidazo[2,1-b]thiazole-7-carboxamide], the “Myc Efficacy (−LogEC50)” value is given as “+++ (+++ ≥6)”.

In the case of `O=C(NCCCN1CCC(F)CC1)c1ccc2c(c1)sc1nc(-c3ccc(C4CC(O)CN4)cc3F)cn12` (stereo not drawn) [Compound 493, 2-(2-fluoro-4-(4-hydroxypyrrolidin-2-yl)phenyl)-N-(3-(4-fluoropiperidin-1-yl)propyl)benzo[d]imidazo[2,1-b]thiazole-7-carboxamide], the “Myc Efficacy (−LogEC50)” value was “+++ (+++ ≥6)”.

In the case of `CNC(=O)c1ccc2c(c1)sc1nc(-c3ccc(C4CCCN4)cc3F)cn12` (stereo not drawn) [Compound 498, 2-(2-fluoro-4-(pyrrolidin-2-yl)phenyl)-N-methylbenzo[d]imidazo[2,1-b]thiazole-7-carboxamide], the “Myc Efficacy (−LogEC50)” value is “+++ (+++ ≥6)”.

Take `CN1CCC(NC(=O)c2ccc3c(c2)sc2nc(-c4ccc(C5CCCN5)cc4F)cn23)CC1` (stereo not drawn) [Compound 500, 2-(2-fluoro-4-(pyrrolidin-2-yl)phenyl)-N-(1-methylpiperidin-4-yl)benzo[d]imidazo[2,1-b]thiazole-7-carboxamide]: the “Myc Efficacy (−LogEC50)” value is reported as “+++ (+++ ≥6)”.

On to `O=C(NCCCN1CCC(F)CC1)c1cc2sc3nc(-c4ccc(C5CCCN5)cc4F)cn3c2cn1` (stereo not drawn) [Compound 501, 2-(2-fluoro-4-(pyrrolidin-2-yl)phenyl)-N-(3-(4-fluoropiperidin-1-yl)propyl)imidazo[2′,1′:2,3]thiazolo[4,5-c]pyridine-7-carboxamide], for which the “Myc Efficacy (−LogEC50)” value is given as “+++ (+++ ≥6)”.

As to `CN1CCC(NC(=O)c2ccc3c(c2)sc2nc(-c4ccc([C@H]5CCCN5)cc4F)cn23)CC1` [Compound 503R, (R)-2-(2-fluoro-4-(pyrrolidin-2-yl)phenyl)-N-(1-methylpiperidin-4-yl)benzo[d]imidazo[2,1-b]thiazole-7-carboxamide], the “Myc Efficacy (−LogEC50)” value is “+++ (+++ ≥6)”.

For the molecule `CN1CCC(NC(=O)c2ccc3c(c2)sc2nc(-c4ccc([C@@H]5CCCN5)cc4F)cn23)CC1` [Compound 503S, (S)-2-(2-fluoro-4-(pyrrolidin-2-yl)phenyl)-N-(1-methylpiperidin-4-yl)benzo[d]imidazo[2,1-b]thiazole-7-carboxamide], the “Myc Efficacy (−LogEC50)” value was “+++ (+++ ≥6)”.

As for `CNC(=O)c1ccc2c(c1)sc1nc(-c3ccc(C4CCNC4)cc3F)cn12` (stereo not drawn) [Compound 504, 2-(2-fluoro-4-(pyrrolidin-3-yl)phenyl)-N-methylbenzo[d]imidazo[2,1-b]thiazole-7-carboxamide], the “Myc Efficacy (−LogEC50)” value was “+++ (+++ ≥6)”.

Consider `CN1CCC(NC(=O)c2ccc3c(c2)sc2nc(-c4ccc(C5CCNC5)cc4F)cn23)CC1` (stereo not drawn) [Compound 505, 2-(2-fluoro-4-(pyrrolidin-3-yl)phenyl)-N-(1-methylpiperidin-4-yl)benzo[d]imidazo[2,1-b]thiazole-7-carboxamide], for which the “Myc Efficacy (−LogEC50)” value was “+++ (+++ ≥6)”.

Take `CN1CC(NC(=O)c2ccc3c(c2)sc2nc(-c4ccc(C5CCCN5)cc4F)cn23)C1` (stereo not drawn) [Compound 506, 2-(2-fluoro-4-(pyrrolidin-2-yl)phenyl)-N-(1-methylazetidin-3-yl)benzo[d]imidazo[2,1-b]thiazole-7-carboxamide]: the “Myc Efficacy (−LogEC50)” value is “+++ (+++ ≥6)”.

In the case of `O=C1CNC(c2ccc(-c3cn4c(n3)sc3cc(C(=O)NCCCN5CCC(F)CC5)ccc34)c(F)c2)C1` (stereo not drawn) [Compound 507, 2-(2-fluoro-4-(4-oxopyrrolidin-2-yl)phenyl)-N-(3-(4-fluoropiperidin-1-yl)propyl)benzo[d]imidazo[2,1-b]thiazole-7-carboxamide], the “Myc Efficacy (−LogEC50)” value is given as “+++ (+++ ≥6)”.

As for `O=C(NCCCN1CCC(F)CC1)c1ccc2c(c1)sc1nc(-c3ccc(C4CCNCC4)cc3F)cn12` [Compound 508, 2-(2-fluoro-4-(piperidin-4-yl)phenyl)-N-(3-(4-fluoropiperidin-1-yl)propyl)benzo[d]imidazo[2,1-b]thiazole-7-carboxamide], the “Myc Efficacy (−LogEC50)” value is reported as “+++ (+++ ≥6)”.

The values above are taken from US12404283B2, “c-MYC mRNA translation modulators and uses thereof in the treatment of cancer” (Anima Biotech Inc., priority 2022, dated 2025).
